Test results taken from patent publication US20220041559A1, “BENZO-AND PYRIDO-PYRAZOLES AS PROTEIN KINASE INHIBITORS” (ROTTAPHARM BIOTECH S.R.L., priority 2019, published 2022).
pIC50: −log10 of the molar value. Like-named read-outs stand apart in the source and are kept apart here.

Experiments:
FYN = target: T1, FYN (Homo sapiens, UniProt P06241); assay: Z'-LYTE in vitro kinase assay, FYN kinase inhibition; type: biochemical
T1 construct: purchased CarnaBioscience
How it was run: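 Active FYN incubated with Z′-LYTE Tyr 2 peptide, near-Km ATP and compound (10^−10 to 10^−5 M final, 1% DMSO) in 50 mM Hepes pH 7.5, 10 mM MgCl2, 1 mM EGTA, 0.01% Brij-35, 60 min at 25° C. Protease development then coumarin/fluorescein FRET readout gives % phosphorylation; IC50 by non-linear fitting.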

human FynB = human FynB (Homo sapiens, UniProt P06241); assay: Inhibition of FynB-induced Tau(Y18)-phosphorylation (cell-based assay, HEK293)
Chain of human FynB (P06241 271-524 limits assumed): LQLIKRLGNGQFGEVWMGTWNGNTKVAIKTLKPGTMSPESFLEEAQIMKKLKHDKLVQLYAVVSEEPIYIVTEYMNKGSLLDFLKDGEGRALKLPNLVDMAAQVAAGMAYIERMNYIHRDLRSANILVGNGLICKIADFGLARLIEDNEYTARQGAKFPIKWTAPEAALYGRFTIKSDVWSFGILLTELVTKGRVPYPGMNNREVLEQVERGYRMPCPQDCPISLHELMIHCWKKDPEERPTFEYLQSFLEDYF
Experimental: HEK293 cells (Human Embryonic Kidney 293) were seeded at 6×10^5 in poly-D-lysine 12 w microplates and grown adherent in medium DMEM/10% FBS at 37° C. with 5% CO2. After 24 h, cells were transfected in order to over-express either constitutively active form of human FynB and Tau protein (isoform 0N4R), through an optimized Lipofectamine® 3000 Transfection protocol (Life Technologies™). A non-transfected sample (negative control) was included in every experiment.
Twenty-four hours from transfection, treatments of cells were performed by adding fresh medium containing diluent (DMSO 0.1% final concentration) or test compounds. The incubation was carried out for 6 or 24 hours at 37° C. with 5% CO2. All experimental conditions were performed in duplicate.
At the end of the incubation, the medium was removed and cellular lysates were obtained by adding M-PER lysis buffer containing a 1× Protease/Phosphatase inhibitors cocktail. Then, lysates were transferred into Eppendorf tubes, sonicated and stored at −80° C.
Protein content was measured by Bradford method. Lysates were analyzed by a customized ELISA assay for Tau phosphorylation (Tyrosine 18 residue-Fyn mediated) and Total amount determination. The net OD values were used to calculate the inhibitory effect of compounds.

VEGFR2 (KDR) kinase = target: T2, VEGFR2 (KDR) kinase (Homo sapiens, UniProt P35968); assay: ADP-Glo in vitro kinase assay, VEGFR2 kinase inhibition; type: biochemical; conditions: ATP 50 μM, 30 minutes at room temperature
T2 construct: purchased SignalChem
T2 sequence (P35968 20-1356): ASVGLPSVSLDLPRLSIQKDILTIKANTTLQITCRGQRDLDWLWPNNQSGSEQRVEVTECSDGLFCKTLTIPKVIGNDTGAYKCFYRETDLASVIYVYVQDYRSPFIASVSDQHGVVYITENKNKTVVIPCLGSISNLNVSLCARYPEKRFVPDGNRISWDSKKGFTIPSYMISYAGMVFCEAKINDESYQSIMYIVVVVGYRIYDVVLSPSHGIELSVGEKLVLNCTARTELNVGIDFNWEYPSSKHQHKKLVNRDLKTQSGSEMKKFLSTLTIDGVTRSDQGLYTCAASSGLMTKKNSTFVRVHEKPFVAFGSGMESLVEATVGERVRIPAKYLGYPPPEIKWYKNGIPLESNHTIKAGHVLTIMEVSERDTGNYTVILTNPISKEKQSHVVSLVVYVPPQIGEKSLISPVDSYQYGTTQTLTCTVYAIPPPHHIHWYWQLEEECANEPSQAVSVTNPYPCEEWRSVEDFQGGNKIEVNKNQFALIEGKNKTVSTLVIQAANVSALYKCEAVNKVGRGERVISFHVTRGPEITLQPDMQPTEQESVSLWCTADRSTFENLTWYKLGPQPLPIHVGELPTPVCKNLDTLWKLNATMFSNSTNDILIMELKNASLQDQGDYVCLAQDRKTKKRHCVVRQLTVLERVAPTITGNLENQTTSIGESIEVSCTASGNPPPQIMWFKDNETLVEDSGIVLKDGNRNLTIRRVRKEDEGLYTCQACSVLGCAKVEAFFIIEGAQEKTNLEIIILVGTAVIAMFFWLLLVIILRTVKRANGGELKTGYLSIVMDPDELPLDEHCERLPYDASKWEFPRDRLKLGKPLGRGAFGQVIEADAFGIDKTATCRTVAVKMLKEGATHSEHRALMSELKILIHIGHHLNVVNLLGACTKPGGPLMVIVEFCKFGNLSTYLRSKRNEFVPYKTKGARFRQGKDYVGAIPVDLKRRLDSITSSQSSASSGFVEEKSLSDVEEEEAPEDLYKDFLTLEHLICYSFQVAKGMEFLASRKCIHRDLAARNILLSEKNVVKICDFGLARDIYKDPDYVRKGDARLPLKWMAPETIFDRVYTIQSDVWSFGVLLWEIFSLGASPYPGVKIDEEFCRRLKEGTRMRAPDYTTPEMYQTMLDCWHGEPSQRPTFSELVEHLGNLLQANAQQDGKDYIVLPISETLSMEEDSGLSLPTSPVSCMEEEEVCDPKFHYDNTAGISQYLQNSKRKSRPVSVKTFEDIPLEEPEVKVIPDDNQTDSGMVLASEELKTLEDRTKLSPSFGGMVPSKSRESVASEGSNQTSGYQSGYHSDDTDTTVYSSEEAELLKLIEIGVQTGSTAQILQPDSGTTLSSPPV
Experimental: The ADP-Glo™ Kinase Assay (Promega), monitoring ADP produced in the kinase reaction, was performed in two steps. In the first one, after the kinase reaction, the ADP-Glo™ Reagent is added to terminate the kinase reaction and deplete the remaining ATP. In the second step, the Kinase Detection Reagent is added to simultaneously convert ADP to ATP (ATPn or newly synthesized ATP) and introduce luciferase and luciferin, allowing the ATPn to be measured (luciferase/luciferin reaction). The amount of light generated correlates with the amount of ATPn (indirectly with the ADP produced in kinase reaction).
Kinase reaction was performed in 10 μl in a white 384-well plate, inhibitor solutions in DMSO/Kinase buffer (40 mM Tris-Cl, 20 mM MgCl2, 0.1 mg/ml BSA, 50 μM DTT, pH 7.5) and VEGFR2 (KDR) kinase in Kinase buffer (SignalChem, 0.5 ng/μl final concentration in assay) were pre-incubate 15 minutes at room temperature. At the kinase concentration selected, a signal-to negative control ratio >10 was calculated, according to supplier indication. In samples representing the Total enzymatic activity or the negative control (no enzyme), inhibitor solution was replaced by diluents (1 DMSO in kinase buffer, final concentration) or ultra-pure water, respectively.
The range of inhibitor concentrations was from 10^−11 M up to 3×10^−6 M (final concentration in assay) and each experimental point was performed in duplicate.
To start the reaction, a substrate/ATP mix (50 μM final concentration, near to ATP Km value) was added to each sample and after 30 minutes incubation at room temperature, ADP-Glo™ Reagent and Kinase Detection Reagent, incubated in sequence according to the respective incubation time and supplier indication, allowed to stop and develop the kinase reaction. The luminescence was measured with a plate-reading luminometer (Envision 2104 Multilabel reader, PerkinElmer). The percentage of inhibition was calculated towards the Total enzymatic activity and the corresponding curves were analyzed by non linear curve fitting (GraphPad software, version 7 for Windows), allowing to calculate the IC50 value±standard error of the value

U87MG xenograft = assay: Survival time of intracranial U87MG glioblastoma bearing mice; type: in vivo, athymic Nude mice; conditions: 50 mg/kg orally once a day, day 9 until day 19
Experimental: Human U87MG cancer cell line were implanted in athymic Nude mice by intracranial injection. Mice, divided into two groups, were orally dosed for 10 days either with vehicle or with Compound 5 (50 mg/kg, once a day) from the day 9 until day 19 after injection of tumour cells. The animal survival was tracked over time, mice were monitored for mortality and sacrificed at appearance of signs of distress, neurological deficits, seizure, or significant body weight loss (e.g. >20%).

[1] = Pharmacokinetics in CD1 mice, iv and po; type: in vivo; conditions: 3 mg/kg; for Kp: brain and plasma, read-out: B/P (brain to plasma ratio); for half-life: read-out: t½* (converted)

T1 sequence (P06241 whole entry): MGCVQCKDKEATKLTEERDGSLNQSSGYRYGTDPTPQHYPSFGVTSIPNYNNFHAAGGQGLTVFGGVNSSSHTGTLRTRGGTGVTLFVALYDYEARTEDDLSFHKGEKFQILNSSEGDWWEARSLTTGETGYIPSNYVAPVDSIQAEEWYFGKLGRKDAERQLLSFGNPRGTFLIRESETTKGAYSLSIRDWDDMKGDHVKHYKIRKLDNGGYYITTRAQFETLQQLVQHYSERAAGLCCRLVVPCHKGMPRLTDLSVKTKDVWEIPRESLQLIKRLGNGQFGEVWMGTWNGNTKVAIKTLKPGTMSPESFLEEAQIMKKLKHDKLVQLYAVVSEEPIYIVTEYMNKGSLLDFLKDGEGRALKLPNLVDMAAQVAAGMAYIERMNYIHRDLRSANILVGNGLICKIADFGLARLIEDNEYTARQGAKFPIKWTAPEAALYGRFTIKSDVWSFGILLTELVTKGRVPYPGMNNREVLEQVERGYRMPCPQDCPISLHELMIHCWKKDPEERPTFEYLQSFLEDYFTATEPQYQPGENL

## CN1CCC(c2ccc(C(=O)Nc3n[nH]c4nc(Nc5ccccc5F)ccc34)cc2)CC1 [Compound 5, N-(6-((2-fluorophenyl)amino)-1H-pyrazolo[3,4-b]pyridin-3-yl)-4-(1-methylpiperidin-4-yl)benzamide]
FYN; Table 17
  FYN kinase inhibition, result in words: more active
FYN; near-Km ATP, 60 minutes at 25° C.
  pIC50: 7.16
Human FynB; HEK293 over-expressing FynB and Tau 0N4R, incubation 6 or 24 hours, ELISA
  pIC50: 6.52
Human FynB; summary of Table 20
  Inhibition of FynB-induced Tau(Y18)-phosphorylation, result in words: best inhibitors
VEGFR2 (KDR) kinase
  pIC50: 7.09
U87MG xenograft
  median survival time from tumour cell injection: 70 days
[1]; iv
  Tlast: 24 h
[1]; mouse, calculated on AUC iv
  Kp: 1.2
[1]; mouse, calculated on AUC po
  Kp: 1.4
[1]; mouse, plasma, iv
  AUC(0-inf): 1640 ng·h/mL
  AUC(0-t): 1620 ng·h/mL
  half-life: 3.9 h
[1]; mouse, plasma, iv, read-out: CLp
  clearance: 30.4 mL/min/kg
[1]; mouse, plasma, iv, read-out: Vz
  Vd: 10.2 L/kg
[1]; mouse, plasma, po
  AUC(0-inf): 1180 ng·h/mL
  AUC(0-t): 1170 ng·h/mL
  Cmax: 331 nM
  Tmax: 2 h
  bioavailability: 72%
  half-life: 4 h
[1]; po
  Tlast: 24 h
